Targets include Cytochrome P450 3A4 (Homo sapiens, UniProt P08684); Cytochrome P450 2C9 (Homo sapiens, UniProt P11712); Cytochrome P450 2D6 (Homo sapiens, UniProt P10635).
Experiment [1] concerns the target T1, Rac GTPase-activating protein 1 (Homo sapiens, UniProt Q9H0H5).
T1 sequence (Q9H0H5 whole entry): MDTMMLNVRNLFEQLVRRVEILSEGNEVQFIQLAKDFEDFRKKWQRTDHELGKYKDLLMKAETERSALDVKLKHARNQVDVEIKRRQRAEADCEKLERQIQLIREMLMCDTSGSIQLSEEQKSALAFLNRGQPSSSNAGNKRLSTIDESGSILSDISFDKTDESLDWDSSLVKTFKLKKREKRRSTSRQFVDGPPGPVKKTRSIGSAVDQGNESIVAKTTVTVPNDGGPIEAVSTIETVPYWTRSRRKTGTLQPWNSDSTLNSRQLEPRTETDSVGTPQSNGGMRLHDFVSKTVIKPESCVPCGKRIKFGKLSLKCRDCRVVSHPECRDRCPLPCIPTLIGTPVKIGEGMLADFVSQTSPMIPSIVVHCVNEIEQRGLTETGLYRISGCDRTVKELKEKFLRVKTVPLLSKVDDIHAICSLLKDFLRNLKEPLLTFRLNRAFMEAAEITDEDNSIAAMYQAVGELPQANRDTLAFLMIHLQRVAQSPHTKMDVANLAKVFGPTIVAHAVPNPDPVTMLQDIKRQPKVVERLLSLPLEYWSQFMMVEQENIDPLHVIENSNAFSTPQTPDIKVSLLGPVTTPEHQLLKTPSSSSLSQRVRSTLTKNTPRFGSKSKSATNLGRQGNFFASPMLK
The experiment in a line: MgcRacGAP GTPase-activating activity inhibitors, confirmation, biochemical, ADP Hunter fluorescence, primary and confirmatory (AID 624330). Format: functional.

Experiment [2] is described as follows: Luminescence Cell-Based Dose Retest to Confirm Inhibitors of Cancer Stem Cells. [Related pubchem assays (depositor defined):AID2717, AID2721]. Format: functional. Particulars: Homo sapiens.
In experiment [3] the target is T2, Heat shock factor protein 1 (Mus musculus, UniProt P38532).
T2 sequence (P38532 whole entry): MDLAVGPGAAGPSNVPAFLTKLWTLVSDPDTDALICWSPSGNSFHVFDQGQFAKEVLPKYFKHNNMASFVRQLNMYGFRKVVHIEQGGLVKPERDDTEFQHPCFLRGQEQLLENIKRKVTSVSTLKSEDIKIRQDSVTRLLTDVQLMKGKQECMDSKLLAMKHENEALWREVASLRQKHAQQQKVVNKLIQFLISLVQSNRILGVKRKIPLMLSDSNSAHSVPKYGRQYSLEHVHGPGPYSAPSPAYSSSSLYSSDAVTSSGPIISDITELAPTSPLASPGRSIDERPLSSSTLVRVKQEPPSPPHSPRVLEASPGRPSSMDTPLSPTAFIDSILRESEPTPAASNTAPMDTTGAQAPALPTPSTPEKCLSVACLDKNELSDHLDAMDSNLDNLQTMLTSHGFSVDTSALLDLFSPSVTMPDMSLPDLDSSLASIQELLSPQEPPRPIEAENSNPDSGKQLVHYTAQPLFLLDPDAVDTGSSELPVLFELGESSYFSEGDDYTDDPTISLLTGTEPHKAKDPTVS
Briefly: inhibition of MG132-induced HSE-luciferase signal, confirmation, cell-based, NIH3T3, luminescence, dose retest (AID 2382).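 Also: NIH3T3 fibroblasts with HSF1-driven luciferase reporter stressed by proteasome inhibitor MG132; luminescence from HSF1-driven luciferase expression after 8 hours of MG132 stress.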 The class given is functional.

A further experiment relates to Streptococcus. Briefly: Group A Streptococcus viability loss, dose response, counter-screen for streptokinase expression inhibitor project, luminescence, BacTiterGlo (AID 1915).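 Also: potency for reduction of bacterial viability or growth.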 Format: functional, organism-based. A general note: The purpose of a counterscreen is to sort out artefacts and off-target activity.
The next experiment concerns the target T3, Streptokinase A (Streptococcus pyogenes serotype M1, UniProt P10520).
T3 sequence (P10520 whole entry): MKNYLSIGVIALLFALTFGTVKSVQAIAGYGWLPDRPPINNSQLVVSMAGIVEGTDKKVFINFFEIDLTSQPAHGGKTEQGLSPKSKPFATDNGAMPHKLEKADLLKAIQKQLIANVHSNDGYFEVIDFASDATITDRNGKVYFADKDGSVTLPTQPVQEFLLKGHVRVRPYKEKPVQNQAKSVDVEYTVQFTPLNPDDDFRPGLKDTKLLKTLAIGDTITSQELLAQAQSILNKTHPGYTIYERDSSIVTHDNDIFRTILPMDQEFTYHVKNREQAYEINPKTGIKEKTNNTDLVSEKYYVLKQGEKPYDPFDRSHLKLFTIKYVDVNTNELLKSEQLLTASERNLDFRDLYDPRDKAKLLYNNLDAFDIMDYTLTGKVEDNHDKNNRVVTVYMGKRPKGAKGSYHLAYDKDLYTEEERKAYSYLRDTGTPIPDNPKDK
The experiment in a line: S. pyogenes streptokinase expression inhibitors, potency, dose response, plasminogen activation absorbance, OD405 (AID 1914).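 Also: secreted streptokinase activity via plasminogen activation per viability signal from cell pellet.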 The class given is functional, Streptococcus pyogenes M1 GAS.

Experiment [4] deals with Streptococcus sp. 'group A'. The experiment in a line: growth inhibition of control SK(-) GAS strain, dose response, counter-screen for streptokinase expression inhibitor project, luminescence, kanamycin, BacTiterGlo, confirmation (AID 1900). The class given is functional, organism-based.
Experiment [5] in a line: cytotoxicity toward NIH3T3 fibroblasts, dose response, counter-screen, cell-based, ATP luminescence, mouse fibroblasts (AID 2010).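 Also: cells exposed to compound for about 90 hours before reading.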 Format: functional.
The nature of experiment [6]: inhibitors of intracellular T. cruzi replication, confirmation, NIH3T3 host cells, beta-gal luminescence (AID 2044).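 Also: intracellular parasites grown in NIH/3T3 mouse fibroblasts as host cells; luminescent beta-galactosidase reporter signal from transgenic T. cruzi replicating inside host cells; inhibitors lower the luminescence signal.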 Format: functional, cell-based.

The record followed here is ChEMBL document CHEMBL1201862, “PubChem BioAssay data set” (2004).

Where a name gives a salt, the structure may show the parent alone. Active and inactive are the calls of the source.

A word on the IC50: it is the midpoint of a concentration-inhibition curve. Broadly, the AC50 is the midpoint of the concentration-response curve, whichever way the signal moves. The term EC50 denotes the concentration giving half of the maximal effect.

Sequence of Cytochrome P450 2C9 (P11712 whole entry): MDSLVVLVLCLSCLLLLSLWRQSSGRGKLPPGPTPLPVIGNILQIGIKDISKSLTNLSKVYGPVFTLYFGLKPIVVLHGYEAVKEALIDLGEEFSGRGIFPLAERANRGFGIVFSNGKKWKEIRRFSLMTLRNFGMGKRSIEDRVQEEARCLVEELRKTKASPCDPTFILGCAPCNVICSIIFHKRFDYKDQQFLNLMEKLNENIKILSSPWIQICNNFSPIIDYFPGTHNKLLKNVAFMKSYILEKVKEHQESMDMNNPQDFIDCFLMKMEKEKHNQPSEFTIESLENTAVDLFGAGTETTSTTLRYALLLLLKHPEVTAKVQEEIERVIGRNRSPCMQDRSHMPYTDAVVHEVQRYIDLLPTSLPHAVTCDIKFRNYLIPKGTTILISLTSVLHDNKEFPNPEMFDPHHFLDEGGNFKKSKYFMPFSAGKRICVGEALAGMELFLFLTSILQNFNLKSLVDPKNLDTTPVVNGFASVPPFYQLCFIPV
Sequence of Cytochrome P450 3A4 (P08684 whole entry): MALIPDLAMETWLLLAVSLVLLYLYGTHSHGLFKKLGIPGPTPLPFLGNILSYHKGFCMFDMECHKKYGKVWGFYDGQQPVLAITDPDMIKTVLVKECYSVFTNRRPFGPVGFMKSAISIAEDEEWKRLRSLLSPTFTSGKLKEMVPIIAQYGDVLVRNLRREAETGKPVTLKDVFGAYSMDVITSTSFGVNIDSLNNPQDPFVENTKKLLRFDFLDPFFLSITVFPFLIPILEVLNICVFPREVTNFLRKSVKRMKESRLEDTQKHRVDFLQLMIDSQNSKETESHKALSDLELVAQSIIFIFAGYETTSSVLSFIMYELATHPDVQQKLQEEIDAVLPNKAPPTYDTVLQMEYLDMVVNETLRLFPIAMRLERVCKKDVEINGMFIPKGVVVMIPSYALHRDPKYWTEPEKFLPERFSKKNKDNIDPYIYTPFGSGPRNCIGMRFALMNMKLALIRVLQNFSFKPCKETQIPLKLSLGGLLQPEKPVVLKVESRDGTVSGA
Sequence of Cytochrome P450 2D6 (P10635 whole entry): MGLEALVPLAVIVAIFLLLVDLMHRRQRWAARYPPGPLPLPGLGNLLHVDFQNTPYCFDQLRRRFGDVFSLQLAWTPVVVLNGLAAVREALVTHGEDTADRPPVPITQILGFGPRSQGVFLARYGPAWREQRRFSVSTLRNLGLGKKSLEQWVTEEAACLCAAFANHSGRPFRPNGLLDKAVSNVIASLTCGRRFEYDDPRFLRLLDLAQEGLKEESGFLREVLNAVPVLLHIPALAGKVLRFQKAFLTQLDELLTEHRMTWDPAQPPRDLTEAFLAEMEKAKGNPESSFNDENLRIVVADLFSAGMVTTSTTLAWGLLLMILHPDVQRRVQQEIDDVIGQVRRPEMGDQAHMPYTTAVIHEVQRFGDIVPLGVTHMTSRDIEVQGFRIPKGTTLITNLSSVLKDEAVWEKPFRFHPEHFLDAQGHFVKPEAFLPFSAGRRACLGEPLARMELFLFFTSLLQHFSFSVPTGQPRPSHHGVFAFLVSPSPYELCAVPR

Turning to `COc1ccc(OC(=O)C2CC(=O)N(c3ccc(C)cc3)C2)cc1` (configuration not stated), the IC50 in experiment [1] was 48.3 µM (active).
`CSc1ccc2c(c1)C(N1CCN(C)CC1)Cc1ccccc1S2` (configuration not stated): the AC50 in [2] is 11.1 µM (active).
Consider `COc1cc(OC)nc(Oc2ccccc2C(=O)Oc2cccc(C)c2)n1`, for which the AC50 on Cytochrome P450 3A4 is 17.8 µM (inconclusive).
With `CCO/C(C)=C1/SC(=S)NC1=O`, in experiment [3], the EC50 was > 195 µM (not active).
For `COc1ccccc1CN1CCC2(CC1)CCN(C(=O)c1csnn1)CC2`, on Cytochrome P450 3A4, the AC50 is 31.6 µM (inconclusive).
The same measure, in the same setting: next, `c1ccc(N2CC[C@@]3(CCCNC3)C2)nc1`: 15.8 µM (inconclusive).
In the case of `COc1cc(N2N=C(c3ccccc3)CC2c2ccccc2)c(C=O)cc1C=O` (configuration not stated), the EC50 in [3] is recorded as > 195 µM (not active).
Turning to `COc1ccc(CN2CCN(Cc3ccco3)CC2)cc1OC`, in experiment [1], the IC50 was 69.2 µM (active).
The same measure, in the same setting: next, `Oc1cc(Br)ccc1/C=N/c1ccc(N2CCCCC2)cc1`: 5.88 µM (active); `Cc1c(N=Nc2ccc(O)cc2)c(=O)n(-c2ccccc2)n1C`: 19.8 µM (active).
Still for that read-out and setting: in the case of `O=C(c1cccnc1)N1CCN(Cc2cccc(Br)c2)CC1` it was 117 µM (active).
For `Cc1ccn2c(Nc3ccc4c(c3)OCO4)c(-c3ccc(O)cc3)nc2c1`, the IC50 in experiment [1] was 39.7 µM (active).
Turning to `COc1ccc(C(=O)CSc2nnc(CN3CCCCC3)n2-c2ccc(Cl)cc2)cc1OC`, in [2], the AC50 was 2.91 µM (active).
Consider `CC/C(=C(\c1ccccc1)c1ccc(OCCN(C)C)cc1)c1ccccc1` [TAMOXIFEN CITRATE], for which the AC50 in experiment [2] is 4.53 µM (active).
For `Cc1ccc(-c2cc(C(=O)NCc3ccc4c(c3)OCO4)no2)cc1`, in experiment [2], the AC50 is > 195 µM (inactive).
On to `CC1(C)CC(=O)C(=NNc2ccc(OC(F)F)cc2)C(=O)C1`, for which the EC50 in experiment [3] was > 195 µM (not active).
As to `COc1cccc(O)c1CN1CCC(C(=O)Nc2ccc(-c3cccc(C)c3)cc2)CC1`, the AC50 in experiment [2] was 6.71 µM (active).
As for `CC(C)(C)[C@H]1C=C(C(=O)Nc2ccccc2)O[C@@H](OCCCCO)C1`, the EC50 in [3] was 5.49 µM (active).
Same read-out and setting: next, `Cc1cc(C)cc(OCC(O)CN2CC(C)OC(C)C2)c1` (configuration not stated): 32.9 µM (active).
For `COc1ccc(NC2CCCN(C(=O)C3(C)CCCCC3)C2)cc1` (configuration not stated), the IC50 in experiment [1] was 80.7 µM (active).
Regarding `O=c1cnc2cnc(N3CCOCC3)nc2n1Cc1ccc(F)cc1`, the figures for the AC50 at Cytochrome P450 3A4 and on Cytochrome P450 2C9 were 12.6 µM (inconclusive) and 25.1 µM (inconclusive), respectively.
On to `CC(C)(C)NC(=O)c1c(F)c(F)c(F)c(F)c1F`, for which the EC50 in experiment [3] was > 195 µM (not active).
With `O=C(c1ccco1)N1CCC[C@@]2(CCN(Cc3ccncc3)C2)C1`, the AC50 on Cytochrome P450 3A4 was 15.8 µM (inconclusive).
In the case of `CCOC(=O)c1c(NC(=O)CSc2nnc(-c3c[nH]c4ccccc34)n2C)sc2c1CCCC2`, the concentration giving a half-maximal response (EC50) in experiment [3] is > 195 µM (not active).
In the case of `COc1cc(C)ccc1OCCCOc1ccccc1Br`, the EC50 (in the experiment with Streptococcus; at Streptokinase A; in experiment [4]) was > 150 µM (not active) each time. The AC50 on Cytochrome P450 2C9 was 39.8 µM (inconclusive).
For `Cc1cc(C)c(NC(=O)Nc2ccc3c(c2)OCO3)c(C)c1`, the EC50 in experiment [3] is > 195 µM (not active).
For `Cc1ccc(S(=O)(=O)NCc2ccccc2)cc1`, on Cytochrome P450 3A4, the half-maximal activity concentration (AC50) is 31.6 µM (inconclusive).
For `O=C(CNC(=O)c1ccccc1Br)N/N=C/c1ccc(O)cc1`, the IC50 in experiment [1] is 58.7 µM (active).
Take `COc1cccc(Nc2ncc3ncc(=O)n(C4CC4)c3n2)c1`: the values for the AC50 on Cytochrome P450 3A4 and on Cytochrome P450 2C9 were 6.31 µM (inconclusive) and 15.8 µM (inconclusive), respectively.
Turning to `Oc1ccc(/C=N/N=C/c2ccc(O)cc2)cc1`, the IC50 in [1] is 77.6 µM (active).
For `COc1ccc(-n2c(S)nnc2-c2cnccn2)cc1`, at Cytochrome P450 3A4, the AC50 was 14.1 µM (inconclusive).
As to `Cc1ccccc1OCC(O)Cn1c2ccccc2c2ccccc21` (configuration not stated), in experiment [2], the AC50 is 5.66 µM (active).
For `COc1ncc2nc(C)c(=O)n(CCc3ccccc3)c2n1`, the AC50 was 15.8 µM (inconclusive) on Cytochrome P450 3A4 and 20 µM (inconclusive) at Cytochrome P450 2C9.
As for `CCCCCCSc1ccc(-c2nc3cnccn3c2NCCCC)cc1`, the AC50 in [2] is 3.59 µM (active).
For `CN(C)c1ncc2nc(-c3ccccc3)c(=O)n(C[C@H]3CCCO3)c2n1`, the AC50 on Cytochrome P450 3A4 was 12.6 µM (inconclusive); on Cytochrome P450 2C9 it was 20 µM (inconclusive); on Cytochrome P450 2D6, 12.6 µM (inconclusive).
`Oc1ccnc2cccc(Cc3ccccc3)c12`: the AC50 was 28.2 µM (inconclusive) at Cytochrome P450 3A4, 15.8 µM (inconclusive) on Cytochrome P450 2C9 and 0.00708 µM (inconclusive) at Cytochrome P450 2D6.
In the case of `COc1nc(-c2ccccc2)ccc1-c1noc(COc2ccccc2)n1`, the EC50 in [3] is given as > 195 µM (not active).
Same read-out and setting: next, `COc1cccc(N(C(=O)c2cccs2)c2nc3ccccc3s2)c1`: > 195 µM (not active).
In the case of `Clc1ccc(-c2nnc(-c3ccccc3)c(-c3ccccc3)n2)cc1`, in [2], the AC50 was 10.1 µM (active).
For the molecule `CCN1CCc2c(OCc3ccccc3)cccc2C1=O`, the EC50 in [3] is 37.3 µM (active).
For `Cc1ccc(S(=O)(=O)N[C@H]2COC(=O)[C@@H](C)COC(=O)[C@H](C)NC(=O)C/C=C\[C@H]2C)cc1`, at Cytochrome P450 3A4, the AC50 is 3.98 µM (inconclusive).
As to `Cc1nc2sc3c(NCc4ccco4)ncnc3c2c2c1COC(C)(C)C2`, in experiment [3], the EC50 is on record as > 195 µM (not active).
Take `CCOC(=O)n1c(=O)n(Cc2c(Cl)cccc2Cl)c2ccccc21`: the AC50 at Cytochrome P450 3A4 is 15.8 µM (inconclusive).
Consider `Cc1[nH]c2ccccc2c1-c1csc(NC(=O)CSCCO)n1`, for which, in experiment [1], the IC50 was 122 µM (active).
In the case of `CS(=O)(=O)N1CCC2(CC1)CN(C(=O)Nc1cccc(C#N)c1)C2`, on Cytochrome P450 3A4, the AC50 is 0.0251 µM (inconclusive).
As for `Cn1cccc1-c1nc2ccccc2n1Cc1ccccc1`, in [2], the AC50 was 10.4 µM (active).
Take `O=C1C(O)=C(C(C2=C(O)C(=O)c3ccccc3C2=O)c2ccc(Cl)cc2)C(=O)c2ccccc21`: the AC50 at Cytochrome P450 3A4 is 3.16 µM (inconclusive); on Cytochrome P450 2C9, 3.16 µM (inconclusive); on Cytochrome P450 2D6 it was 2.51 µM (inconclusive).
As to `Cc1ccc2nc(Cl)c3cc(C(=O)N(CCN(C)C)Cc4ccco4)sc3c2c1`, the values for the EC50 in [5] and in [6] were > 60 µM (not active) and 0.123 µM (active), respectively. For the same molecule, the half-maximal activity concentration (AC50) in experiment [2] was 1.86 µM (active).
